According to patent publication US20190134120A1, “METHODS FOR THE TREATMENT OF BLADDER CANCER” (Viralytics Limited, priority 2013, published 2019):

How the values were obtained:
bladder cell line T24 = assay: Synergy between MMC and CVA21, dose matrix, T24 cells; type: cell-based, Human; conditions: CVA21 (0-50 TCID50/cell) with MMC (0-3.36 ug/ml), at low mitomycin concentrations, especially below 0.2 ug/ml
Procedure: (§1) In brief, 5637/T24/TCCSUP-1 cells were plated at 1×10^4 cells per well (100 μL) of a 96 well tray and incubated at 37° C. for 24 hrs. Mitomycin C was diluted in 10% FCS medium in doubling dilutions from between 2.8 to 0.02 ug/ml for 5637 cells and between 3.36 to 0.03 ug/ml for T24 cells. CVA21 was then diluted between MOI 25-0.196 in doubling dilutions using each dilution of Mitomycin C. The cells were then treated with each dilution of CVA21/Mitomycin C and incubated for 72 hrs. The medium was removed and 100 μl of diluted MTS reagent (Promega) was added. The plates were then incubated for 1-4 hrs and absorbance read at 492 nm.

[1] = test system: bladder cancer cell line 5637; assay: Synergy between CVA21 and MMC, dose matrix, 5637 cells; type: cell-based, Human; conditions: MMC 0 to 2.8 ug/ml
Procedure: as §1

5637 cells = assay: Synergy between CVA21 and radiotherapy, 5637 cells; type: cell-based, Human; conditions: 5637 cells irradiated (4-10 Gy)
Procedure: (§2) Combining CVA21 with the radiotherapy has shown exceptional synergy. When 5637 cells were irradiated (4-10 Gy) then 24 hours later exposed to CVA21 (multiplicities of infection 0.961-12.6), clear synergy was seen (FIG. 3a). […] A comprehensive experimental and analytic method was implemented for this work which allows calculation of combination index values at all data points, and therefore identification of areas of high synergy across the whole response surface (Greco et al. 1995) (FIGS. 3b, 3c).
(§3) In brief, T24/5637 cells were plated at 0.25×10^4/0.5×10^4 cells per well (100 μL) of a 96 well tray and incubated at 37° C. for 24 hrs. Day 2—An extra 100 ul 10% FCS, media was added to the cells. Then they were treated with Rad (Gy 0, 4, 6, 8, 10) on a clinical Varian linear accelerator in St Luke's Cancer Centre, Royal Surrey Hospital UK. Day 2—The plates were returned to the lab and incubated at 37° C. for 24 hrs. Day 3—The medium was removed and 100 ul of CVA21 (MOI 12.5-0.1 in 2% FCS medium) was added and incubated at 37° C. for 72 hrs. Day 6—The medium was removed and 100 μl of fresh 10% FCS medium added and incubated for 24 hrs. Day 7—The medium was removed and 100 μl of diluted MTS reagent (Promega) was added. The plates were then incubated for 1-2 hr and read absorbance at 492 nm. […]

T24 cells = assay: Synergy between CVA21 and radiotherapy, T24 cells; type: cell-based, Human
Procedure: as §2, §3

[2] = test system: late stage melanoma patients; conditions: Phase II, intralesional treatment, cited from earlier work

Question: Which CI values (bladder cell line T24) does the source give for Coxsackievirus A21 [CVA21] here?
Answer: < 1

Question: And the “interaction of CVA21 with MMC” value [1]?
Answer: Synergy

Question: What about the “interaction of CVA21 with radiation” value (5637 cells; 24 hours later CVA21) of the same substance?
Answer: clear synergy

Question: And the “combination indices, minima” value (5637 cells; 24 hours later exposed to CVA21 (MOI 0.961-12.6), dose matrix analysis)?
Answer: approximately 0.4

Question: What about the “interaction of CVA21 with radiation” value (T24 cells) of the same substance?
Answer: Synergy between radiation and CVA21 was confirmed

Question: What about the tolerability [2] of the same substance?
Answer: generally being well-tolerated

Question: And the clinical activity ([2]; late stage melanoma)?
Answer: activity in both injected lesions and non-injected distant lesions
